Measurements reported in PubChem BioAssay (NCI).
Several values for one entry are separate records, joined by “and”; a condition that tells them apart may be missing. Equal values may be shown once.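 Interpolation was linear, between the two tested concentrations surrounding the appropriate level; five concentrations were tested over 48 hours in 96-well plates. At the GI50, growth is halved. At the TGI there is no net growth.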

What was measured:
Experiment in all cases: NCI tumour cell line growth inhibition, 48 h
[1] = tested on: RXF-631 renal
[2] = tested on: P388 leukemia
[3] = tested on: P388/ADR leukemia
[4] = tested on: SN12K1 renal

Structure (SMILES)	TGI [1]	TGI [2]	TGI [3]	TGI [4]	GI50 [4]
O=c1cc(-c2ccccc2)[nH]c2cc3c(cc12)OCO3	> 100 µM	–	–	–	–
CCOC(=O)C(N)CSC(=O)NC (stereo unspecified)	–	102 µM	104 µM	112 µM	–
C=C1C(=O)O[C@H]2[C@H]1[C@@H](OC(=O)C=C(C)C)CC1=C[C@@H](C[C@@]3(C)O[C@@H]23)OC1=O	–	0.914 µM	1120 µM and 1250 µM	21.3 µM and 35.5 µM	17.6 µM
COc1cc2c(cc1OCc1ccccc1)CNCC2	> 100 µM	–	–	–	–
Cc1cccc(NC(=O)/C=C/c2ccc(N(CCC#N)CCC#N)cc2C)c1	> 100 µM	–	–	–	–
COc1ccc(C(=O)C(CO)Oc2ccccc2OC)cc1OC (stereo unspecified)	> 100 µM	–	–	–	–
